Reference: ChEMBL document CHEMBL3822442, “Synthesis and Pharmacological Characterization of Novel Glucagon-like Peptide-2 (GLP-2) Analogues with Low Systemic Clearance” (J Med Chem, 2016)
pEC50: −log10 of the molar value. Activity calls are given as the source filed them. No cut-off for these calls is given here. Non-standard residues stand in square brackets, D forms with d. Residues, ends and D or L forms follow the SMILES beside them. ξ: configuration not given here. ξNle = CCCCC(N)C(=O)O

Legend:
[1] = Protein binding in rat plasma at 200 to 1000 ng/ml incubated for 15 mins by LC/MS/MS based ultracentrifugation method; assay type: ADME, cell-free; settings: read-out: PPB (converted)
[2] = target: Glucagon-like peptide 1 receptor (Homo sapiens, UniProt P43220); test: Agonist activity at human GLP1R expressed in HEK293 cells after 5 hrs by luciferase reporter gene assay; assay type: cell-based
[3] = Systemic clearance in Sprague-Dawley rat at 0.2 mg/kg, iv through cassette dosing measured up to 300 mins by LC/MS/MS analysis; assay type: ADME, organism-based; settings: in vivo
[4] = target: T1, Glucagon-like peptide 2 receptor (Homo sapiens, UniProt O95838); test: Agonist activity at human GLP2R expressed in HEK293 cells after 5 hrs by luciferase reporter gene assay; assay type: cell-based
T1 sequence (O95838 whole entry): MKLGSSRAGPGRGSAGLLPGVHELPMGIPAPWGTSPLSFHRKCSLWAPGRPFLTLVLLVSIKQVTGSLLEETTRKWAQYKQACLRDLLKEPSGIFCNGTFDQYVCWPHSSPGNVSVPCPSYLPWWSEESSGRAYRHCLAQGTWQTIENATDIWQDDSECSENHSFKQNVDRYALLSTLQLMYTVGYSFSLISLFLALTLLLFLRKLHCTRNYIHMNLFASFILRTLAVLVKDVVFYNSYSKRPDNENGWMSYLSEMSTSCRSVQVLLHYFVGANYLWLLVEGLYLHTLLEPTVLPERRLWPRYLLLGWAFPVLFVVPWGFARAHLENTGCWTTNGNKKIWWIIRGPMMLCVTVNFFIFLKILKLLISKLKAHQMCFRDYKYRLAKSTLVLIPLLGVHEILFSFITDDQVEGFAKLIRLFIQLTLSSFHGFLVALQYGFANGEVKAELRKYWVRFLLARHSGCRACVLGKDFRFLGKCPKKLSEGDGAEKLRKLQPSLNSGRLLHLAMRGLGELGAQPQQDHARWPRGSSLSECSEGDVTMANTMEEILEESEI

[5] = target: T2, Glucagon-like peptide 2 receptor (Rattus norvegicus, UniProt Q9Z0W0); test: Agonist activity at rat GLP2R expressed in HEK293 cells after 5 hrs by luciferase reporter gene assay; assay type: cell-based
T2 sequence (Q9Z0W0 whole entry): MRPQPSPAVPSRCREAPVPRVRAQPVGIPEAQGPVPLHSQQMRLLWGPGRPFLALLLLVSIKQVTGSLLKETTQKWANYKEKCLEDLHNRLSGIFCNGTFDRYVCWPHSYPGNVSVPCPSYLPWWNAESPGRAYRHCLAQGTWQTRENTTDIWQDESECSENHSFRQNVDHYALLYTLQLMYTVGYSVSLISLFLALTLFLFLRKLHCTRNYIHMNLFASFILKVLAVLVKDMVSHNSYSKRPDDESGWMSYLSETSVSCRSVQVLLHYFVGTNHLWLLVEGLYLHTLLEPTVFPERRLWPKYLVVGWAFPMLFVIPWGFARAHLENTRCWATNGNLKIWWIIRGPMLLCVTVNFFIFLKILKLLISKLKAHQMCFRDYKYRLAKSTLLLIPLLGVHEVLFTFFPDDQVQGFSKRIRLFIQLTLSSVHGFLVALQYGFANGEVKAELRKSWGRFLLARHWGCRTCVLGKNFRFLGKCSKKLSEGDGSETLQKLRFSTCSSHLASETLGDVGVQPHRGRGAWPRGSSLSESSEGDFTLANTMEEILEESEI

HEK293 = test: Selectivity ratio of EC50 for human GLP1R expressed in HEK293 cells to EC50 for human GLP2R expressed in HEK293; assay type: cell-based
Rattus norvegicus = test: Intestinotrophic activity in Sprague-Dawley rat assessed as increase in intestinal growth at 1000 nmol/kg, sc once daily through bolus administration for 5 days relative to control; assay type: functional
[6] = target: Glucagon receptor (Homo sapiens) (UniProt P47871); test: Agonist activity at human GCGR expressed in HEK293 cells up to 1000 nM after 5 hrs by luciferase reporter gene assay; assay type: cell-based
[7] = Half life in sc dosed human; assay type: ADME, organism-based; settings: in vivo

Chain of Glucagon-like peptide 1 receptor (P43220 whole entry): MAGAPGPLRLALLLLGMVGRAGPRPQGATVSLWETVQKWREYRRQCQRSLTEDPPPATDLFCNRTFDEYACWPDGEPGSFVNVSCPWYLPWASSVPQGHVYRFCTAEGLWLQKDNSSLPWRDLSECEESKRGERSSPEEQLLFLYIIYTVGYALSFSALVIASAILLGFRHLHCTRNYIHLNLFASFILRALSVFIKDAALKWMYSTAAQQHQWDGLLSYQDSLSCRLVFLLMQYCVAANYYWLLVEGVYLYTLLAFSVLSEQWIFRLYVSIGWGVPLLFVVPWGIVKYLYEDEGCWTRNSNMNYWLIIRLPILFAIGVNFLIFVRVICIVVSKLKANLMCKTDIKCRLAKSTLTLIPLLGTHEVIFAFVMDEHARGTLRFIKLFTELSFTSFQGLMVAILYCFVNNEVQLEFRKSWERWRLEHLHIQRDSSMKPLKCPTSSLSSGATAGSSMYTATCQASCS
Chain of Glucagon receptor (Homo sapiens) (P47871 whole entry): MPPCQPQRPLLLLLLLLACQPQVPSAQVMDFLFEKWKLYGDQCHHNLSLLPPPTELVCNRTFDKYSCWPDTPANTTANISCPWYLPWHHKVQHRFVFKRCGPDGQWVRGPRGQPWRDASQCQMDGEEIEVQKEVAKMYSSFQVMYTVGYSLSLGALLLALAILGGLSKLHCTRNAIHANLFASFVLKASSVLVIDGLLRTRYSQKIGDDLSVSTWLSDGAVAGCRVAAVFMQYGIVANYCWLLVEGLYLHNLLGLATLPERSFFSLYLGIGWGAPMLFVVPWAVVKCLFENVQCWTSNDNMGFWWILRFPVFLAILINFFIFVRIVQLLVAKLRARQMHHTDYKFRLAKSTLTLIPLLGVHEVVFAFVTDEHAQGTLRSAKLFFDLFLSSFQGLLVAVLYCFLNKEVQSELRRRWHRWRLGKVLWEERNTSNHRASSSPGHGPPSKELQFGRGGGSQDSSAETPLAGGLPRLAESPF

With `CC[C@H](C)[C@H](NC(=O)[C@H](Cc1ccccc1)NC(=O)[C@H](CC(=O)O)NC(=O)[C@H](CCCN=C(N)N)NC(=O)[C@H](C)NC(=O)[C@H](C)NC(=O)[C@H](CC(C)C)NC(=O)[C@H](CC(N)=O)NC(=O)[C@H](CC(=O)O)NC(=O)[C@H](CC(C)C)NC(=O)[C@@H](NC(=O)[C@@H](NC(=O)[C@H](CC(N)=O)NC(=O)[C@H](CCSC)NC(=O)[C@H](CCC(=O)O)NC(=O)[C@H](CC(=O)O)NC(=O)[C@H](CO)NC(=O)[C@H](Cc1ccccc1)NC(=O)[C@H](CO)NC(=O)CNC(=O)[C@H](CC(=O)O)NC(=O)[C@H](C)NC(=O)[C@@H](N)Cc1cnc[nH]1)[C@@H](C)O)[C@@H](C)CC)C(=O)N[C@@H](CC(N)=O)C(=O)N[C@@H](Cc1c[nH]c2ccccc12)C(=O)N[C@@H](CC(C)C)C(=O)N[C@H](C(=O)N[C@@H](CCC(N)=O)C(=O)N[C@H](C(=O)N[C@@H](CCCCN)C(=O)N[C@H](C(=O)N[C@H](C(=O)N[C@@H](CC(=O)O)C(=O)O)[C@@H](C)O)[C@@H](C)CC)[C@@H](C)O)[C@@H](C)CC` the fraction unbound at 0.25 h [1] was 0.338, the pEC50 [2] was 6.28 and the clearance [3] was 1.5 L/h/kg.
Molecule `CCCC[C@H](NC(=O)[C@H](CCC(=O)O)NC(=O)[C@H](CC(=O)O)NC(=O)[C@H](CO)NC(=O)[C@H](Cc1ccccc1)NC(=O)[C@H](CO)NC(=O)CNC(=O)[C@H](CC(=O)O)NC(=O)CNC(=O)[C@@H](N)Cc1cnc[nH]1)C(=O)N[C@H](Cc1ccccc1)C(=O)N[C@H](C(=O)N[C@H](C(=O)N[C@@H](CC(C)C)C(=O)N[C@@H](CC(=O)O)C(=O)N[C@@H](CC(C)C)C(=O)N[C@@H](CC(C)C)C(=O)N[C@@H](C)C(=O)N[C@@H](C)C(=O)N[C@@H](CCCNC(=N)N)C(=O)N[C@@H](CC(=O)O)C(=O)N[C@@H](Cc1ccccc1)C(=O)N[C@H](C(=O)N[C@@H](CC(N)=O)C(=O)N[C@@H](Cc1c[nH]c2ccccc12)C(=O)N[C@@H](CC(C)C)C(=O)N[C@H](C(=O)N[C@@H](CCC(N)=O)C(=O)N[C@H](C(=O)N[C@@H](CCCCN)C(=O)N[C@H](C(=O)N[C@H](C(=O)N[C@@H](CC(=O)O)C(N)=O)[C@@H](C)O)[C@@H](C)CC)[C@@H](C)O)[C@@H](C)CC)[C@@H](C)CC)[C@@H](C)CC)[C@@H](C)O` [listing 1 of 2 here] has a fraction unbound at 0.25 h [1] of 0.008, a pEC50 [4] of 10.52 and a pEC50 [2] of under 6.00. It also gave a pEC50 [5] of 10.40.
For `CCCCC(NC(=O)[C@H](CCC(=O)O)NC(=O)[C@H](CC(=O)O)NC(=O)[C@H](CO)NC(=O)[C@H](Cc1ccccc1)NC(=O)[C@H](CO)NC(=O)CNC(=O)[C@H](CC(=O)O)NC(=O)CNC(=O)[C@@H](N)Cc1cnc[nH]1)C(=O)N[C@H](Cc1ccccc1)C(=O)N[C@H](C(=O)N[C@H](C(=O)N[C@@H](CC(C)C)C(=O)N[C@@H](CC(=O)O)C(=O)N[C@@H](CC(C)C)C(=O)N[C@@H](CC(C)C)C(=O)N[C@@H](C)C(=O)N[C@@H](C)C(=O)N[C@@H](CCCNC(=N)N)C(=O)N[C@@H](CC(=O)O)C(=O)N[C@@H](Cc1ccccc1)C(=O)N[C@H](C(=O)N[C@@H](CC(N)=O)C(=O)N[C@@H](Cc1c[nH]c2ccccc12)C(=O)N[C@@H](CC(C)C)C(=O)N[C@H](C(=O)N[C@@H](CCC(N)=O)C(=O)N[C@H](C(=O)N[C@@H](CCCCN)C(=O)N[C@H](C(=O)N[C@H](C(=O)N[C@@H](CC(=O)O)C(=O)NCC(C)C)[C@@H](C)O)[C@@H](C)CC)[C@@H](C)O)[C@@H](C)CC)[C@@H](C)CC)[C@@H](C)CC)[C@@H](C)O` (stereo partly drawn), the Ratio EC50 (HEK293) was over 16000, the fraction unbound at 0.25 h [1] was 0.016 and the pEC50 [4] was 10.22. It also gave a pEC50 [2] of under 6.00 and a clearance [3] of 0.0102 L/h/kg.
For `CCCC[C@H](NC(=O)[C@H](CCC(=O)O)NC(=O)[C@H](CC(=O)O)NC(=O)[C@H](CO)NC(=O)[C@H](Cc1ccccc1)NC(=O)[C@H](CO)NC(=O)CNC(=O)[C@H](CC(=O)O)NC(=O)CNC(=O)[C@@H](N)Cc1cnc[nH]1)C(=O)N[C@H](Cc1ccccc1)C(=O)N[C@H](C(=O)N[C@H](C(=O)N[C@@H](CC(C)C)C(=O)N[C@@H](CC(=O)O)C(=O)N[C@@H](CC(C)C)C(=O)N[C@@H](CC(C)C)C(=O)N[C@@H](C)C(=O)N[C@@H](C)C(=O)N[C@@H](CCCNC(=N)N)C(=O)N[C@@H](CC(=O)O)C(=O)N[C@@H](Cc1ccccc1)C(=O)N[C@H](C(=O)N[C@@H](CC(N)=O)C(=O)N[C@@H](Cc1c[nH]c2ccccc12)C(=O)N[C@@H](CC(C)C)C(=O)N[C@H](C(=O)N[C@@H](CCC(N)=O)C(=O)N[C@H](C(=O)N[C@@H](CCCCN)C(=O)N[C@H](C(=O)N[C@H](C(=O)N[C@@H](CC(=O)O)C(N)=O)[C@@H](C)O)[C@@H](C)CC)[C@@H](C)O)[C@@H](C)CC)[C@@H](C)CC)[C@@H](C)CC)[C@@H](C)O` [listing 2 of 2 here], the Activity (Rattus norvegicus) was 61.2%.
For `CCCC[C@H](NC(=O)[C@H](CCC(=O)O)NC(=O)[C@H](CC(=O)O)NC(=O)[C@H](CO)NC(=O)[C@H](Cc1ccccc1)NC(=O)[C@H](CO)NC(=O)CNC(=O)[C@H](CC(=O)O)NC(=O)CNC(=O)[C@@H](N)Cc1cnc[nH]1)C(=O)N[C@H](Cc1ccccc1)C(=O)N[C@H](C(=O)N[C@H](C(=O)N[C@@H](CC(C)C)C(=O)N[C@@H](CC(=O)O)C(=O)N[C@@H](CC(C)C)C(=O)N[C@@H](CC(C)C)C(=O)N[C@@H](C)C(=O)N[C@@H](C)C(=O)N[C@@H](CCCNC(=N)N)C(=O)N[C@@H](CC(=O)O)C(=O)N[C@@H](Cc1ccccc1)C(=O)N[C@H](C(=O)N[C@@H](CC(N)=O)C(=O)N[C@@H](Cc1c[nH]c2ccccc12)C(=O)N[C@@H](CC(C)C)C(=O)N[C@H](C(=O)N[C@@H](CCC(N)=O)C(=O)N[C@H](C(=O)N[C@@H](CCCCN)C(=O)N[C@H](C(=O)N[C@H](C(=O)N[C@@H](CC(=O)O)C(=O)O)[C@@H](C)O)[C@@H](C)CC)[C@@H](C)O)[C@@H](C)CC)[C@@H](C)CC)[C@@H](C)CC)[C@@H](C)O`, the fraction unbound at 0.25 h [1] was 0.005, the pEC50 [4] was 10.52 and the pEC50 [2] was under 6.00. It also gave a clearance [3] of 0.0168 L/h/kg.
For `CCCCC(NC(=O)[C@H](CCC(=O)O)NC(=O)[C@H](CC(=O)O)NC(=O)[C@H](CO)NC(=O)[C@H](Cc1ccccc1)NC(=O)[C@H](CO)NC(=O)CNC(=O)[C@H](CC(=O)O)NC(=O)CNC(=O)[C@@H](N)Cc1cnc[nH]1)C(=O)N[C@@H](CC(N)=O)C(=O)N[C@H](C(=O)N[C@H](C(=O)N[C@@H](CC(C)C)C(=O)N[C@@H](CC(=O)O)C(=O)N[C@@H](CC(C)C)C(=O)N[C@@H](CC(C)C)C(=O)N[C@@H](C)C(=O)N[C@@H](C)C(=O)N[C@@H](CCCNC(=N)N)C(=O)N[C@@H](CC(=O)O)C(=O)N[C@@H](Cc1ccccc1)C(=O)N[C@H](C(=O)N[C@@H](CC(N)=O)C(=O)N[C@@H](Cc1c[nH]c2ccccc12)C(=O)N[C@@H](CC(C)C)C(=O)N[C@H](C(=O)N[C@@H](CCC(N)=O)C(=O)N[C@H](C(=O)N[C@@H](CCCCN)C(N)=O)[C@@H](C)O)[C@@H](C)CC)[C@@H](C)CC)[C@@H](C)CC)[C@@H](C)O` (stereo partly drawn) (H-HGDGSFSDE[ξNle]NTILDLLAARDFINWLIQTK-NH2), the Ratio EC50 (HEK293) was over 10000, the fraction unbound at 0.25 h [1] was 0.013 and the pEC50 [4] was 10.00. For the same molecule, the pEC50 [2] was under 6.00, the clearance [3] was 0.0504 L/h/kg and the Activity [6] was “inactive”.
For `CC[C@H](C)[C@H](NC(=O)[C@H](Cc1ccccc1)NC(=O)[C@H](CC(=O)O)NC(=O)[C@H](CCCNC(=N)N)NC(=O)[C@H](C)NC(=O)[C@H](C)NC(=O)[C@H](CC(C)C)NC(=O)[C@H](CC(N)=O)NC(=O)[C@H](CC(=O)O)NC(=O)[C@H](CC(C)C)NC(=O)[C@@H](NC(=O)[C@@H](NC(=O)[C@H](CC(N)=O)NC(=O)[C@H](CCSC)NC(=O)[C@H](CCC(=O)O)NC(=O)[C@H](CC(=O)O)NC(=O)[C@H](CO)NC(=O)[C@H](Cc1ccccc1)NC(=O)[C@H](CO)NC(=O)CNC(=O)[C@H](CC(=O)O)NC(=O)CNC(=O)[C@@H](N)Cc1c[nH]cn1)[C@@H](C)O)[C@@H](C)CC)C(=O)N[C@@H](CC(N)=O)C(=O)N[C@@H](Cc1c[nH]c2ccccc12)C(=O)N[C@@H](CC(C)C)C(=O)N[C@H](C(=O)N[C@@H](CCC(N)=O)C(=O)N[C@H](C(=O)N[C@@H](CCCCN)C(=O)N[C@H](C(=O)N[C@H](C(=O)N[C@@H](CC(=O)O)C(=O)O)[C@@H](C)O)[C@@H](C)CC)[C@@H](C)O)[C@@H](C)CC` [TEDUGLUTIDE], the fraction unbound at 0.25 h [1] was 0.419, the half-life [7] was 3 h and the pEC50 [2] was under 6.00. It also gave a pEC50 [5] of 10.10 and an Activity (Rattus norvegicus) of 39%.
